Data on 37 compounds can be found in patent US9890152B2 (Genentech, Inc., priority 2012, dated 2018).

pKi: −log10 of the molar value.

The target of this test is T1, EGFR del746-750 T790M (Homo sapiens, UniProt P00533, DEL746-750/T790M).
T1 construct: purchased Carna Biosciences 08-528
T1 sequence (P00533 with tags, fused parts or gaps DEL746-750/T790M limits assumed): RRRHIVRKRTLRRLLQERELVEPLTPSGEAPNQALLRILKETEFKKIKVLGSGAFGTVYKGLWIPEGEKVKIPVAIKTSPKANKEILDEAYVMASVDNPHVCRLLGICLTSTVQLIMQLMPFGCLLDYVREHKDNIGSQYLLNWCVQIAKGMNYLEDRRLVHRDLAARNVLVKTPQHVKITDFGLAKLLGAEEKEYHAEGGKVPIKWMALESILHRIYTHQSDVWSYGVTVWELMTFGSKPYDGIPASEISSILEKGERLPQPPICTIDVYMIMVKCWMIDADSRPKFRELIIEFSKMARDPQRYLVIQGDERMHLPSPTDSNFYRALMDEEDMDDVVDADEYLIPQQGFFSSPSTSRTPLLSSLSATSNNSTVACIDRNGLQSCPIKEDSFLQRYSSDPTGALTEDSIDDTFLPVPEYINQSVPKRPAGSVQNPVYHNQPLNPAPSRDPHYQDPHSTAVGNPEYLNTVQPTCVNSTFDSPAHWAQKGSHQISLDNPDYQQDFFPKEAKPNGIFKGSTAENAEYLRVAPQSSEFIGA
Put plainly: EGFR del746-750 T790M biochemical assay (Caliper mobility shift). Particulars: 5 μM ATP, 30 min, room temperature; apparent Ki (Morrison) converted by Cheng-Prusoff, Km of ATP 2.1 μM; read-out: EGFR(T790M/d746-750) Ki.
Consider `CC(C)n1c(CO)nc2cnc(Nc3ccnc(N4CCC(C)(O)CC4)n3)cc21` [Example 418, 1-(4-((2-(hydroxymethyl)-1-isopropyl-1H-imidazo[4,5-c]pyridin-6-yl)amino)pyrimidin-2-yl)-4-methylpiperidin-4-ol], for which the pKi is 6.77.

With `Cc1cn[nH]c1-c1cn(C(C)C)c2cc(Nc3ccnc(N4CCC(O)C(C)(C)C4)n3)ncc12` (stereo not shown) [Example 347, 1-(4-((1-Isopropyl-3-(4-methyl-1H-pyrazol-5-yl)-1H-pyrrolo[3,2-c]pyridin-6-yl)amino)pyrimidin-2-yl)-3,3-dimethylpiperidin-4-ol], the pKi is 7.69.

Consider `Cc1nc2cnc(Nc3ccnc(N4CCC5(CC4)OCCO5)n3)cc2n1C(C)C` [Example 506, N-(2-(1,4-Dioxa-8-azaspiro[4.5]decan-8-yl)pyrimidin-4-yl)-1-isopropyl-2-methyl-1H-imidazo[4,5-c]pyridin-6-amine], for which the pKi is 6.93.

For the compound `Cc1nc2cnc(Nc3ccnc(N4CCC(O)C(F)(F)C4)n3)cc2n1C(C)C` (racemic) [Example 507, (±)-3,3-Difluoro-1-(4-((1-isopropyl-2-methyl-1H-imidazo[4,5-c]pyridin-6-yl)amino)pyrimidin-2-yl)piperidin-4-ol], the pKi is 7.66.

As for `CO[C@H]1CCN(c2nccc(Nc3cc4c(cn3)nc([C@H](C)O)n4[C@@H](C)C(F)(F)F)n2)C[C@H]1F` [Example 684], the pKi was 8.12.

As to `Cc1nc2cnc(Nc3ccnc(-c4cnn(S(=O)(=O)C5CNC5)c4)n3)cc2n1C(C)C` [Example 467, N-(2-(1-(azetidin-3-ylsulfonyl)-1H-pyrazol-4-yl)pyrimidin-4-yl)-1-isopropyl-2-methyl-1H-imidazo[4,5-c]pyridin-6-amine], the pKi was 8.24.

Turning to `C[C@H](n1c([C@@H](C)O)nc2cnc(Nc3ccnc(N4CC[C@](C)(O)[C@H](F)C4)n3)cc21)C(F)(F)F` [Example 676], the pKi was 8.09.

With `CO[C@@]1(C)CCN(c2nccc(Nc3cc4c(cn3)nc(C)n4C(C)C)n2)C[C@H]1F` [Example 673], the pKi was 7.01.

On to `COCCC(C)(C)n1c(CO)nc2cnc(Nc3ccnc(-c4cnn(S(=O)(=O)C5CC5)c4)n3)cc21` [Example 695], for which the pKi is 7.16.

Regarding `COC1CCN(c2nccc(Nc3cc4c(cn3)c(C(=O)NCCn3ccnc3)cn4C(C)C)n2)CC1` [Example 63, N-(2-(1H-Imidazol-1-yl)ethyl)-1-isopropyl-6-(2-(4-methoxypiperidin-1-yl)pyrimidin-4-ylamino)-1H-pyrrolo[3,2-c]pyridine-3-carboxamide], the pKi is 8.00.

Consider `CCC(C)n1cc(N2CCCC2=O)c2cnc(Nc3ccnc(N4CC[C@@H](O)[C@@H](F)C4)n3)cc21` (mixture of isomers) [Example 641, 1-(1-(sec-butyl)-6-((2-((3S,4R)-3-fluoro-4-hydroxypiperidin-1-yl)pyrimidin-4-yl)amino)-1H-pyrrolo[3,2-c]pyridin-3-yl)pyrrolidin-2-one], for which the pKi is 8.40.

Consider `COC1CCN(c2nccc(Nc3cc4c(cn3)nc(C)n4Cc3ccccc3)n2)CC1` [Example 356, 1-Benzyl-N-[2-(4-methoxy-1-piperidyl)pyrimidin-4-yl]-2-methyl-imidazo[4,5-c]pyridin-6-amine], for which the pKi was 6.25.

Turning to `CO[C@@H]1CCN(c2nccc(Nc3cc4c(cn3)nc([C@@H](C)O)n4C(C)C)n2)C[C@@H]1F` [Example 659], the pKi was 7.41.

Consider `COC1CCN(c2nccc(Nc3cc4c(cn3)nc([C@@H](C)O)n4[C@H](C)C(F)(F)F)n2)CC1F` (mixture of isomers) [Example 297, (R)-1-[6-[2-(cis-3-Fluoro-4-methoxypiperidin-1-yl)pyrimidin-4-ylamino]-1-((R)-2,2,2-trifluoro-1-methylethyl)-1H-imidazo[4,5-c]pyridin-2-yl]ethanol], for which the pKi was 7.40.

Turning to `Cc1nc2cnc(Nc3ccnc(N4CC[C@@H](O)C[C@H]4C)n3)cc2n1C(C)C` [Example 601], the pKi is 7.30.

In the case of `Cc1cc(-c2cn(C(C)C)c3cc(Nc4ccnc(-c5cnn(S(=O)(=O)C6CC6)c5)n4)ncc23)nn1CCO` [Example 435, 2-(3-(6-(2-(1-(cyclopropylsulfonyl)-1H-pyrazol-4-yl)pyrimidin-4-ylamino)-1-isopropyl-1H-pyrrolo[3,2-c]pyridin-3-yl)-5-methyl-1H-pyrazol-1-yl)ethanol], the pKi is 8.63.

Take `COC1CCN(c2nccc(Nc3cc4c(cn3)nc(C)n4C(C)(C)C)n2)CC1` [Example 163, (1-tert-butyl-2-methyl-1H-imidazo[4,5-c]pyridin-6-yl)-[2-(4-methoxypiperidin-1-yl)pyrimidin-4-yl]amine]: the pKi was 7.83.

As for `Cc1nc2cnc(Nc3ccnc(N4CC[C@@H](O)C4)n3)cc2n1C(C)C` [Example 680], the pKi is 6.40.

For `COC1CCN(c2nccc(Nc3cc4c(cn3)nc(C)n4C(C)CC#N)n2)CC1` (stereo not shown) [Example 349, 3-(6-((2-(4-Methoxypiperidin-1-yl)pyrimidin-4-yl)amino)-2-methyl-1H-imidazo[4,5-c]pyridin-1-yl)butanenitrile], the pKi was 6.16.

As for `Cc1nc2cnc(Nc3ccnc(-c4cnoc4)n3)cc2n1C(C)C` [Example 366], the pKi is 7.83.

As to `CO[C@@H]1CCN(c2nccc(Nc3cc4c(cn3)nc([C@@H](C)O)n4[C@@H](C)C(F)(F)F)n2)C[C@@H]1F` [Example 290, (R)-1-[6-[2-((3S,4R)-3-Fluoro-4-methoxypiperidin-1-yl)-pyrimidin-4-ylamino]-1-((S)-2,2,2-trifluoro-1-methylethyl)-1H-imidazo[4,5-c]pyridin-2-yl]ethanol], the pKi was 8.33.

On to `CCS(=O)(=O)n1cc(-c2nccc(Nc3cc4c(cn3)c(-c3cnn(CCS(C)(=O)=O)c3)cn4C(C)C)n2)cn1` [Example 392, N-(2-(1-(ethylsulfonyl)-1H-pyrazol-4-yl)pyrimidin-4-yl)-1-isopropyl-3-(1-(2-(methylsulfonyl)ethyl)-1H-pyrazol-4-yl)-1H-pyrrolo[3,2-c]pyridin-6-amine], for which the pKi is 8.85.

On to `CC(C)n1cc(C(=O)NC2CCOCC2)c2cnc(Nc3ccnc(NCC(C)(C)S(C)(=O)=O)n3)cc21` [Example 664], for which the pKi is 8.25.

Turning to `Cc1nc2cnc(Nc3ccnc(NCC(F)(F)C(N)=O)n3)cc2n1C(C)C` [Example 610, 2,2-Difluoro-3-[4-(1-isopropyl-2-methyl-1H-imidazo[4,5-c]pyridin-6-ylamino)pyrimidin-2-ylamino]propionamide], the pKi was 7.88.

Regarding `CC(C)n1cc(C(=O)NC2CCOCC2)c2cnc(Nc3ccnc(N4CCC(O)C(C)(C)C4)n3)cc21` (racemic) [Example 385, (±)-6-((2-(4-hydroxy-3,3-dimethylpiperidin-1-yl)pyrimidin-4-yl)amino)-l-isopropyl-N-(tetrahydro-2H-pyran-4-yl)-1H-pyrrolo[3,2-c] pyridine-3-carboxamide], the pKi is 8.19.

Consider `CCNC(=O)c1cn(C(C)CC)c2cc(Nc3ccnc(N4CC[C@@H](O)[C@@H](F)C4)n3)ncc12` (single isomer, unassigned) [Example 370], for which the pKi is 8.40.

As to `CC1CC1n1c(CO)nc2cnc(Nc3ccnc(-c4cnn(S(=O)(=O)C5CC5)c4)n3)cc21` (stereo not shown) [Example 698], the pKi was 8.15.

As for `CCC(C)n1cc(C(=O)NC2CCOCC2)c2cnc(Nc3ccnc(-c4cnn(S(=O)(=O)C5CC5)c4)n3)cc21` (single isomer, unassigned; (+)) [Example 321, (+)-1-(sec-Butyl)-6-((2-(1-(cyclopropylsulfonyl)-1H-pyrazol-4-yl)pyrimidin-4-yl)amino)-N-(tetrahydro-2H-pyran-4-yl)-1H-pyrrolo[3,2-c]pyridine-3-carboxamide], the pKi is 8.84.

On to `CC(C)n1c(CO)nc2cnc(Nc3ccnc(N4CC[C@H]([S+](C)[O-])[C@H](F)C4)n3)cc21` (relative stereo) [Example 623, {6-[2-(cis-3-Fluoro-4-methanesulfinylpiperidin-1-yl)pyrimidin-4-ylamino]-1-isopropyl-1H-imidazo[4,5-c]pyridin-2-yl}methanol], for which the pKi is 6.41.

Regarding `CC(C)n1cnc2cnc(Nc3ccnc(N4CC5CC4CC5F)n3)cc21` (stereo not shown) [Example 191], the pKi is 7.26.

In the case of `CCC(C)n1cc(C(=O)NC2CCN(C3COC3)CC2)c2cnc(Nc3ccnc(-c4cnn(S(=O)(=O)C5CC5)c4)n3)cc21` (racemic) [Example 371, (±)-1-(sec-butyl)-6-((2-(1-(cyclopropylsulfonyl)-1H-pyrazol-4-yl)pyrimidin-4-yl)amino-N-(1-(oxetan-3-yl)piperidin-4-yl)-1H-pyrrolo[3,2-c]pyridine-3-carboxamide], the pKi is 8.94.

For `Cc1nc2cnc(Nc3ccnc(N4CCC(C)(O)CC4)n3)cc2n1C(C)C` [Example 682], the pKi is 6.87.

For the compound `CC(C)n1c(CO)nc2cnc(Nc3ccnc(N4CC[C@@H](O)[C@H](C(F)(F)F)C4)n3)cc21` (racemic) [Example 627, (±)-(trans)-1-(4-(2-(Hydroxymethyl)-1-isopropyl-1H-imidazo[4,5-c]pyridin-6-ylamino)pyrimidin-2-yl)-3-(trifluoromethyl)piperidin-4-ol], the pKi is 5.80.

As for `C[C@@H](O)c1nc2cnc(Nc3ccnc(N4CC[C@H](O)[C@H](F)C4)n3)cc2n1[C@H](C)C(F)(F)F` [Example 688], the pKi is 6.97.

Turning to `COC1CCN(c2nccc(Nc3cc4c(cn3)c(-c3cnn(CCO)c3)cn4C(C)C)n2)CC1` [Example 402, 2-(4-(1-isopropyl-6-((2-(4-methoxypiperidin-1-yl)pyrimidin-4-yl)amino)-1H-pyrrolo[3,2-c]pyridin-3-yl)-1H-pyrazol-1-yl)ethanol], the pKi is 9.08.

Turning to `CCc1ncc(-c2nccc(Nc3cc4c(cn3)nc(CO)n4C(C)C)n2)s1` [Example 671], the pKi is 7.90.

For `CO[C@@H]1CCN(c2nccc(Nc3cc4c(cn3)nc(CO)n4[C@@H](C)C(F)(F)F)n2)C[C@@H]1F` [Example 657], the pKi is 7.76.
